Experimental data as given in ChEMBL document CHEMBL3396955, “Discovery of non-electrophilic capsaicinoid-type TRPA1 ligands” (Bioorg Med Chem Lett, 2015).

Tests used:
Type in all cases: cell-based
[1] = biological target: T1, Transient receptor potential cation channel subfamily V member 1 (Homo sapiens, UniProt Q8NER1); experiment: Agonist activity at human recombinant TRPV1 expressed in HEK293 cells assessed as Ca2+ influx by Fluo-4 dye based assay
[2] = biological target: T2, Transient receptor potential cation channel subfamily A member 1 (Rattus norvegicus, UniProt Q6RI86); experiment: Antagonist activity against rat recombinant TRPA1 expressed in HEK293 cells assessed as inhibition of AITC-induced Ca2+ influx pre-treated 5 mins before capsaicin addition by Fluo-4 dye based assay
T2 sequence (Q6RI86 whole entry): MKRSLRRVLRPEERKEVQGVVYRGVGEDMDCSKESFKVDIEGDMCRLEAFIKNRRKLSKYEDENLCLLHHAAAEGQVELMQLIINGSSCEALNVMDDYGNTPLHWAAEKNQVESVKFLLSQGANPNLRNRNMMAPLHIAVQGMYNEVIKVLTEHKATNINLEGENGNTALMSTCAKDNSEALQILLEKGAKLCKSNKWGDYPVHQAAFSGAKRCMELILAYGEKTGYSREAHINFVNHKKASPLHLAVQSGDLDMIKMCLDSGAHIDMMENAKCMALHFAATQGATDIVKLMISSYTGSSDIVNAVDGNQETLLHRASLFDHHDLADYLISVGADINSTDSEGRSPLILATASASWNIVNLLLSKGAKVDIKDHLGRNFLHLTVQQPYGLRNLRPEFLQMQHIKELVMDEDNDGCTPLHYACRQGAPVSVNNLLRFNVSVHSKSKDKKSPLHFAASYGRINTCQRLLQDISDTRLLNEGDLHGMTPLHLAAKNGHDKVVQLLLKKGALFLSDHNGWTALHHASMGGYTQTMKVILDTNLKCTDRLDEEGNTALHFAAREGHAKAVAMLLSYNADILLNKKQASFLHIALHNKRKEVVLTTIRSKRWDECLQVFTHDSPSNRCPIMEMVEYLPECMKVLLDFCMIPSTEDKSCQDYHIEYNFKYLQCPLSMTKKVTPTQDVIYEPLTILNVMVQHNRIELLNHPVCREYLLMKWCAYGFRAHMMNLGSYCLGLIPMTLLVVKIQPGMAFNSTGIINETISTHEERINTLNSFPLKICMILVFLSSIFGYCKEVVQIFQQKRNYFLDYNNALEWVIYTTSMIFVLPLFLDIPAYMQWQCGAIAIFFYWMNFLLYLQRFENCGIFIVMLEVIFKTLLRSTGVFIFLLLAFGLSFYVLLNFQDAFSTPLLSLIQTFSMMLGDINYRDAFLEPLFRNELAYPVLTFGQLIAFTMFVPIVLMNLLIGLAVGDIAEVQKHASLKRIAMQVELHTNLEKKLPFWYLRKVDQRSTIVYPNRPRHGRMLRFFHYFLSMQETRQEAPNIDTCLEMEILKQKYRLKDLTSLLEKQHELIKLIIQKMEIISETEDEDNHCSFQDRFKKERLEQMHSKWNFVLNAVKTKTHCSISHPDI

[3] = biological target: T1, Transient receptor potential cation channel subfamily V member 1; experiment: Antagonist activity against human recombinant TRPV1 expressed in HEK293 cells assessed as inhibition of capsaicin-induced Ca2+ influx pre-treated 5 mins before capsaicin addition by Fluo-4 dye based assay
[4] = biological target: T1, Transient receptor potential cation channel subfamily V member 1; experiment: Agonist activity at human recombinant TRPV1 expressed in HEK293 cells assessed as Ca2+ influx by Fluo-4 dye based assay relative to 4 uM ionomycin
[5] = biological target: T2, Transient receptor potential cation channel subfamily A member 1; experiment: Agonist activity at rat recombinant TRPA1 expressed in HEK293 cells assessed as Ca2+ influx by Fluo-4 dye based assay
[6] = biological target: Transient receptor potential cation channel subfamily A member 1 (Rattus norvegicus) (UniProt Q6RI86); experiment: Agonist activity at rat recombinant TRPA1 expressed in HEK293 cells assessed as Ca2+ influx by Fluo-4 dye based assay relative to 100 uM AITC
Chain of Transient receptor potential cation channel subfamily A member 1 (Rattus norvegicus) (Q6RI86 whole entry): as above

T1 sequence (Q8NER1 whole entry): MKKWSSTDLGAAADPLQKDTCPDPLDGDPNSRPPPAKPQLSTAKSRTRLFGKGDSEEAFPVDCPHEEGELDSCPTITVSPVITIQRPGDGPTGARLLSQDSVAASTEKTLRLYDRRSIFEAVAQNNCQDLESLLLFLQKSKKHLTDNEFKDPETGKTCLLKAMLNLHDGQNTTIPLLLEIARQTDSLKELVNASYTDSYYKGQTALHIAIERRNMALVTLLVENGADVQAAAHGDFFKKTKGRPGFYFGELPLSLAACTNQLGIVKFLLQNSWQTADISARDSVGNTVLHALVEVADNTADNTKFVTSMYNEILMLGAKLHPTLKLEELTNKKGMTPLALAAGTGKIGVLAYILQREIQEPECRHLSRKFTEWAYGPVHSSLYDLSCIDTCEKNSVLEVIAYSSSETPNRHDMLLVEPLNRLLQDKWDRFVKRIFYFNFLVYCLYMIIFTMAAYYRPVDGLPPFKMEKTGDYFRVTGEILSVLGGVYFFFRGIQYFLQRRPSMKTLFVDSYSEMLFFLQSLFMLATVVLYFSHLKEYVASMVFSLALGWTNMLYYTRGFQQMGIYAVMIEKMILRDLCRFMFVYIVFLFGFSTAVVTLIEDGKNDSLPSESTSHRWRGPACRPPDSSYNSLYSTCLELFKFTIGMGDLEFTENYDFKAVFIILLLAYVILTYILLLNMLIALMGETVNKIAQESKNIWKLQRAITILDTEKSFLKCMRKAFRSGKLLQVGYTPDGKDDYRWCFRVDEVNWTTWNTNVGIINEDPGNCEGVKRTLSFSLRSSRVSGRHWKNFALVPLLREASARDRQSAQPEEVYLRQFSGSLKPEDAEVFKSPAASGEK

| Structure (SMILES) | EC50 ([1]; hek293) | IC50 [2] | IC50 [3] | Efficacy [4] | EC50 ([5]; read-out: EC50) | Efficacy [6] | EC50 ([1]; read-out: EC50) | EC50 ([5]; hek293) |
| --- | --- | --- | --- | --- | --- | --- | --- | --- |
| CCCCCC[C@H](C/C=C\CCCCCCCCn1nnc(-c2ccc(O)c(OC)c2)n1)OC(=O)Cc1ccccc1 | Not Active | 2.9 µM | > 100 µM | < 10% | 0.81 µM | 72.6% | – | – |
| C=CCN=C=S | – | – | – | – | – | 38.9% | – | – |
| CCCCCCCCCn1nnc(-c2ccc(O)c(OC)c2)n1 | – | 1.71 µM | 36 µM | 28.5% | 1.41 µM | 65.9% | 6.9 µM | – |
| CCCCCCCC/C=C\CCCCCCCCn1nnc(-c2ccc(O)c(OC)c2)n1 | – | 1 µM | > 100 µM | 24.2% | 0.83 µM | 83.1% | 5.5 µM | – |
| COc1cc(CNC(=O)CCCC/C=C/C(C)C)ccc1O [CAPSAICIN] | – | – | – | – | – | – | – | Not Active |
| CCCCCC[C@@H](O)C/C=C\CCCCCCCCn1nnc(-c2ccc(O)c(OC)c2)n1 | – | 11.2 µM | 57.5 µM | 21% | 36.7 µM | 62.6% | 37.5 µM | – |
